Test [1] concerns the target T1, human 5-HT2B receptor (Homo sapiens, UniProt P41595).
T1 construct: expressed in transfected cells
Nature of the test: cell-based. In kind it is cell-based. The conditions noted are these: for Rel. eff h5-HT2B: fraction of response to 10 μM 5-HT.

The target in test [2] is T2, canine 5-HT2B receptor (Canis lupus familiaris, UniProt Q50DZ8). As to the kind of experiment: cell-based. The conditions noted are these: for Rel. eff. c5-HT2B: HEK-293, fraction of response to 10 μM 5-HT. On the set-up: Apparent equilibrium dissociation constant KD; other: canine 5-HT2B, COS-7 membranes, mean ± S.E.M. (n = 3 to 6); other: COS-7 membranes; head prints [^3H]-ketanserin; mean ± S.E.M of 3-8 experiments; KD of radioligand; other: canine 5-HT2B, transfected COS-7 membranes; other: HEK-293, Ca^2+ FLIPR, mean ± S.E.M of 3 to 6 experime. It counts as cell-based.

For test [3], the target named is T3, canine 5-HT2A receptor (Canis lupus familiaris, UniProt O46635). The conditions noted are these: ratio of binding affinities canine vs human 5-HT2A.
T3 sequence (O46635 whole entry): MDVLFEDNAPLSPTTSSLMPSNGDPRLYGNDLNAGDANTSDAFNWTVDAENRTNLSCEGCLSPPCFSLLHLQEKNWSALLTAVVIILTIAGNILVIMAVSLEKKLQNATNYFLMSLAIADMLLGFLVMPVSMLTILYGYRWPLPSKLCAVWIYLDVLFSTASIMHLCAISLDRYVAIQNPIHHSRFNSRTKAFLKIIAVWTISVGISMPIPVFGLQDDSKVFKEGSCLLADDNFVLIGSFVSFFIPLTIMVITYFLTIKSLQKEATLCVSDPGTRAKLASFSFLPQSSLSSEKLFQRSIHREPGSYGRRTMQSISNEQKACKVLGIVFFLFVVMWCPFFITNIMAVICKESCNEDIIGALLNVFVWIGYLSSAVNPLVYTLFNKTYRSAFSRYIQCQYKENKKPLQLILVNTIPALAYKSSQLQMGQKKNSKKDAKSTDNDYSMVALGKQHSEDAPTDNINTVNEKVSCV
The target of test [4] is T3, canine 5-HT2A receptor. Nature of the test: biochemical.
For test [5], the system named is canine 5-HT2B receptor. As to the kind of experiment: biochemical. In kind it is binding. The conditions noted are these: ratio of binding affinities canine vs human 5-HT2B.
For test [6], the target named is T1, human 5-HT2B receptor. Nature of the test: biochemical. In kind it is binding.
The target in test [7] is T3, canine 5-HT2A receptor. As to the kind of experiment: cell-based. In kind it is cell-based. More on the design: The resulting 5-HT2A full length cDNA was cloned into the pCIneo vector; expressed in transfected cells. The conditions noted are these: for Rel. eff. c5-HT2A: HEK-293, fraction of response to 10 μM 5-HT; for agonist potency at canine 5-HT2A compared to human 5-HT2A: functional Ca^2+ assay, Table 3.

Test [8] has as its target T2, canine 5-HT2B receptor. As to the kind of experiment: biochemical. It counts as binding. More on the design: Apparent equilibrium dissociation constant KD; other: canine 5-HT2B, COS-7 membranes, mean ± S.E.M. (n = 3 to 6); other: COS-7 membranes; head prints [^3H]-ketanserin; mean ± S.E.M of 3-8 experiments; KD of radioligand; other: canine 5-HT2B, transfected COS-7 membranes; other: HEK-293, Ca^2+ FLIPR, mean ± S.E.M of 3 to 6 experime.

For test [9], the target named is T4, human 5-HT2A receptor (Homo sapiens, UniProt P28223).
T4 construct: expressed in transfected cells
T4 sequence (P28223 whole entry): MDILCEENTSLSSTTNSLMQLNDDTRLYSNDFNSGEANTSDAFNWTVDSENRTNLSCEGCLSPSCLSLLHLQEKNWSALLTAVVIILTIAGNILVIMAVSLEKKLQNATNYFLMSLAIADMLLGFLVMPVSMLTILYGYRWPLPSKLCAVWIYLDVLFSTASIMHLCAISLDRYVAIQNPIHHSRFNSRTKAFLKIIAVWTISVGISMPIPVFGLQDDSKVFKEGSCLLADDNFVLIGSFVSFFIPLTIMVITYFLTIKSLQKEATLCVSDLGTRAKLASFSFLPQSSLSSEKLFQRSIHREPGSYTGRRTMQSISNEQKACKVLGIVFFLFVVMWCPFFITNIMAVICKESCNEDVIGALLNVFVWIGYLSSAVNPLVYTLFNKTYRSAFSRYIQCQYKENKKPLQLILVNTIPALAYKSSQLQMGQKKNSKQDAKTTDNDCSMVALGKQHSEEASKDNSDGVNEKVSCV
As to the kind of experiment: cell-based. It counts as cell-based.

Test [10] has as its target T4, human 5-HT2A receptor. As to the kind of experiment: biochemical. In kind it is binding.
The mark [11] stands for this setting: CHO, Ca^2+ FLIPR, apparent pKB, mean ± S.E.M of 3 to 6 experiments, read-out: Antagonist affinity pKB h5-HT2B (converted).
[12] abbreviates: HEK-293, Ca^2+ FLIPR, apparent pKB, mean ± S.E.M of 3 to 6 experiments, read-out: Antagonist affinity pKB c5-HT2B (converted).
Setting [13] is: read-out: Affinity constant pKI h5-HT2B (converted).
[14] abbreviates: read-out: Affinity constant pKI c5-HT2B (converted).

Like-named read-outs stand apart in the source and are kept apart here.

T1 sequence (P41595 whole entry): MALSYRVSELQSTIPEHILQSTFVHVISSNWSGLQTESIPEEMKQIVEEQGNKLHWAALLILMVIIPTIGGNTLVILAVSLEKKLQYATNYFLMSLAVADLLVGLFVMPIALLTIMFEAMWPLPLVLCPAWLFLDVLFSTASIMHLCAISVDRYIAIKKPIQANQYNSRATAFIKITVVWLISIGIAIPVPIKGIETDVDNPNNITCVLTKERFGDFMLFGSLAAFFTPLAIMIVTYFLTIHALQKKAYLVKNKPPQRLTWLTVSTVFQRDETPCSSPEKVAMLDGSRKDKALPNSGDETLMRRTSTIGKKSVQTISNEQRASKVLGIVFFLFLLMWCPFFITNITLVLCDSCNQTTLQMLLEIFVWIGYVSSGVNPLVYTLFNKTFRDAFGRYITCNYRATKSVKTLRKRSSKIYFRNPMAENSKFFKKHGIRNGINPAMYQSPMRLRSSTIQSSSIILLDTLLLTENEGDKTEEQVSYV

For `FC(F)(F)c1cccc(N2CCNCC2)c1` [TFMPP, N-(3-trifluoromethyl-henyl)piperazine], the “Rel. eff h5-HT2B” value on human 5-HT2B receptor [1] (CHO) is recorded as 0.49 ± 0.04. On canine 5-HT2B receptor [2] (HEK-293, Ca^2+ FLIPR), the “agonistic response on canine 5-HT2B receptor” value was “no agonistic response”. Also, the “Ratio c5-HT2A vs. h5-HT2A” value on canine 5-HT2A receptor [3] is listed as 2.45. Moreover, the Ki at canine 5-HT2A receptor [4] is 214 nM; on canine 5-HT2B receptor [8], 41.7 nM; at human 5-HT2A receptor [10], 87.1 nM. The “Ratio c5-HT2B vs. h5-HT2B” value in the test on canine 5-HT2B receptor [5] is on record as 1.04. Further, the “Affinity constant pKI h5-HT2B” value at human 5-HT2B receptor [6] (CHO membranes, head: [^3H]-mesulergine, mean ± S.E.M of 3-8 experiments) was determined as 7.40 ± 0.05. On canine 5-HT2A receptor [7], the “Rel. eff. c5-HT2A” value was found to be 0.72 ± 0.04. Moreover, the “agonist potency at canine 5-HT2A compared to human 5-HT2A” value at canine 5-HT2A receptor [7] is listed as “higher potencies”. Further, the “Rel. eff. h5-HT2A” value on human 5-HT2A receptor [9] is listed as 0.17 ± 0.01.
For the compound `Cc1nc2sccn2c(=O)c1CCN1CCC(=C(c2ccc(F)cc2)c2ccc(F)cc2)CC1` [Ritanserin, ritanserin], the values for the Kb on human 5-HT2B receptor [1], at canine 5-HT2B receptor [2] and at canine 5-HT2A receptor [7] were 5.89 nM, 10 nM and 7.08 nM, respectively. Also, the Ki at canine 5-HT2A receptor [4] was 7.59 nM; on human 5-HT2B receptor [6] it was 4.57 nM; on canine 5-HT2B receptor [8], 3.98 nM.
Regarding `NCCc1c[nH]c2ccc(C(N)=O)cc12` [5-CT, 5-carboxyamidotryptamine], the “Rel. eff h5-HT2B” value on human 5-HT2B receptor [1] (CHO) stood at 0.95 ± 0.01. Moreover, on canine 5-HT2B receptor [2], the “Rel. eff. c5-HT2B” value was 1.19 ± 0.05. Further, the “Ratio c5-HT2A vs. h5-HT2A” value on canine 5-HT2A receptor [3] was found to be 1.99. The Ki at canine 5-HT2A receptor [4] was 2290 nM; on human 5-HT2B receptor [6], 61.7 nM; on canine 5-HT2B receptor [8] it was 74.1 nM; at human 5-HT2A receptor [10], 1150 nM. Also, the “Ratio c5-HT2B vs. h5-HT2B” value in the test on canine 5-HT2B receptor [5] came to 1.20. The “Rel. eff. c5-HT2A” value at canine 5-HT2A receptor [7] came to 0.94 ± 0.08. Also, the “agonist potency at canine 5-HT2A compared to human 5-HT2A” value at canine 5-HT2A receptor [7] is listed as “higher potencies”. Besides, the “Rel. eff. h5-HT2A” value on human 5-HT2A receptor [9] was found to be 0.70 ± 0.13.
Consider `COC(=O)[C@@H]1[C@H]2C[C@H]3c4[nH]c5ccccc5c4CCN3C[C@@H]2CC[C@@H]1O` [Yohimbine, yohimbine], for which the Kb at canine 5-HT2B receptor [2] was 1.58 nM. In addition, the Ki at canine 5-HT2B receptor [8] was 81.3 nM.
For the compound `Cc1cc(NC(=O)Nc2ccc3c(ccn3C)c2)sn1` [SB-204741, N-(1-methyl-5-in-dolyl)-N′-(3-methyl-5-isothiazolyl) urea], the Kb on human 5-HT2B receptor [1] (setting [11]) is 44.7 nM; on canine 5-HT2B receptor [2] (setting [12]) it was 44.7 nM; on canine 5-HT2A receptor [7], over 10000 nM. Also, the figures for the Ki on canine 5-HT2A receptor [4], at human 5-HT2B receptor [6] (setting [13]) and on canine 5-HT2B receptor [8] (setting [14]) were over 10000 nM, 120 nM and 182 nM, respectively.
On to `CN(C)CCO/N=C(/C=C/c1ccc(O)cc1)c1ccccc1F` [Eplivanserin, eplivanserin], for which the Kb is over 10000 nM on human 5-HT2B receptor [1] (setting [11]); over 10000 nM on canine 5-HT2B receptor [2] (setting [12]); 0.251 nM on canine 5-HT2A receptor [7] (HEK-293, Ca^2+ FLIPR, apparent pKB, mean ± S.E.M of 3 to 6 experiments, read-out: Antagonist affinity pKB c5-HT2A (converted)); 0.372 nM at human 5-HT2A receptor [9] (NIH3T3, Ca^2+ FLIPR, apparent pKB, mean ± S.E.M of 3 to 6 experiments, read-out: Antagonist affinity pKB h5-HT2A (converted)). The Ki at canine 5-HT2A receptor [4] was 1 nM; on human 5-HT2B receptor [6] (setting [13]) it was 1410 nM; at canine 5-HT2B receptor [8] (setting [14]), 1910 nM; at human 5-HT2A receptor [10] (read-out: Affinity constant pKI h5-HT2A (converted)) it was 0.2 nM.
For `COc1cc(CC(C)N)c(OC)cc1I` (stereo not drawn) [DOI, 1-(2,5-dimethoxy-4-iodophenyl)-2-aminopropane], the “Rel. eff h5-HT2B” value at human 5-HT2B receptor [1] (CHO) is reported as 0.96 ± 0.02. Besides, the “Rel. eff. c5-HT2B” value on canine 5-HT2B receptor [2] amounted to 0.75 ± 0.03. In addition, the Ki was 12 nM on canine 5-HT2A receptor [4], 15.1 nM at human 5-HT2B receptor [6] and 13.2 nM at canine 5-HT2B receptor [8]. Further, at canine 5-HT2A receptor [7], the “Rel. eff. c5-HT2A” value is on record as 0.89 ± 0.02. Also, the “Rel. eff. h5-HT2A” value at human 5-HT2A receptor [9] is recorded as 0.65 ± 0.04.
On to `O=C(c1ccc(F)cc1)C1CCN(CCn2c(=O)[nH]c3ccccc3c2=O)CC1` [Ketanserin, ketanserin], for which the Kb on canine 5-HT2B receptor [2] was 1580 nM; on canine 5-HT2A receptor [7] it was 1.26 nM. Moreover, the Ki on canine 5-HT2A receptor [4] is 14.5 nM; at canine 5-HT2B receptor [8], 631 nM.
With `CN1C[C@@H](NS(=O)(=O)N(C)C)C[C@@H]2c3cccc4c3c(cn4C)C[C@H]21` [Mesulergine, mesulergine], the Kb was 2.34 nM on human 5-HT2B receptor [1], 0.501 nM on canine 5-HT2B receptor [2] (setting [12]), 25.1 nM at canine 5-HT2A receptor [7] and 58.9 nM at human 5-HT2A receptor [9]. The Ki at canine 5-HT2A receptor [4] is 91.2 nM; at human 5-HT2B receptor [6] it was 8.71 nM; at canine 5-HT2B receptor [8] (setting [14]), 17 nM; at human 5-HT2A receptor [10] it was 22.9 nM.
